Read-outs that look alike come from different tables or passages of the source.

Experimental findings from patent US20240076272A1, “Activators of Heme Regulated Inhibitor Kinase (HRI)” (The Brigham and Women`s Hospital, Inc., priority 2019, published 2024) are described below.

The subject of data set [1] is eIF2α phosphorylation (ATF-4 5′UTR luciferase reporter). In words: surrogate eIF2α phosphorylation dual-luciferase reporter (DLR) assay. The data set is classed as cell-based. The settings on record: F/R luciferase ratio normalized to DMSO wells (F/R=1); for fold induction at 1.25 µM: read-out: Fold stimulation of ATF-4 Surrogate eIF2α @ 1.25 μM; for fold induction at 5 µM: read-out: Fold stimulation of ATF-4 Surrogate eIF2α @ 5 μM. The source says:
The dual luciferase expression vector and other plasmids used in the Examples provided herein have been previously reported (see e.g., Ziegeler et al, J. Biol. Chem. 285 (2010) 15408-15419). The dual luciferase surrogate eIF2α phosphorylation assay, has also been previously reported (see e.g., Chen et al, Nat. Chem. Biol. 7 (2011) 610-616). Briefly, a dual Renilla and Firefly luciferase mammalian reporter vector that transcribes both mRNAs from the same bi-directional enhancer/promoter complex was utilized for generation of surrogate eIF2α phosphorylation assay (see e.g., Ziegeler et al, J. Biol. Chem. 285 (2010) 15408-15419). Both mRNAs contained the same 90 nucleotide plasmid derived 5′UTR. In addition, 5′UTR of the Firefly luciferase open reading frame was fused in-frame to the 267 nucleotide ATF-4 5′UTR (see e.g., Chen et al, Nat. Chem. Biol. 7 (2011) 610-616).
Cells expressing firefly and renilla luciferases were assayed with a dual glow luciferase assay kit, per manufacturer's instruction (Promega Inc., Madison, WI). The data calculations were carried out as the ratio of firefly to renilla luciferase signal (see e.g., Ziegeler et al, J. Biol. Chem. 285 (2010) 15408-15419). Dose-response curves were obtained, and triplicate data points were fitted to the logistical sigmoidal model using nonlinear least-squares regression performed in GraphPad Prism 6.
All newly synthesized N,N′-disubstituted ureas were initially evaluated by testing in the surrogate eIF2α phosphorylation dual-luciferase reporter (DLR) assay (see e.g., Chen et al, Nat. Chem. Biol. 7 (2011) 610-616; and Ziegeler et al, J. Biol. Chem. 285 (2010) 15408-15419). Briefly, this assay takes advantage of the fact that activated HRI phosphorylates eIF2α which inhibits eIF2 guanine nucleotide exchange factor eIF2B, responsible for exchanging the GDP in the eIF2·GDP complex for GTP. The reduction in the recycling of eIF2·GDP into eIF2·GTP interferes with the formation of eIF2·GTP·Met-tRNAi ternary complex. […] These include mRNA coding for activating transcription factor 4 (ATF-4) (see e.g., Aktas et al, Oncotarget, 4 (2013) 1606-1617; Aktas et al, Oncotarget, 6 (2015) 6902-6914; and Aktas et al, Proc. Natl. Acad. Sci. U.S.A. 95 (1998) 8280-8285).
In the present assay, firefly (F) luciferase mRNA was fused to the 5′UTR of ATF-4 mRNA that had multiple uORFs, while renilla (R) luciferase mRNA was fused to a 5′UTR lacking any uORFs. Agents that reduce the amount of the eIF2·GTP·Met-tRNAi ternary complex, such as N,N′-disubstituted ureas that activate HRI, increase F luciferase expression while reducing the R luciferase expression, resulting in an increased F/R luciferase ratio. The ureas of the present application were tested at 10 μM, 5 μM, 2.5 μM, and 1.25 μM concentrations in 96-well assay plates (see e.g., Chen et al, Nat. Chem. Biol. 7 (2011) 610-616; and Bai et al, ChemBioChem, 14 (2013) 1255-1262). The activity scores as the F/R ratios were calculated for every compound-treated well and normalized to F/R ratio of vehicle-treated (DMSO) wells in the same plate, arbitrarily set at 1 (F/R=1). Data obtained in the surrogate dual-luciferase eIF2α phosphorylation (DLR) assay for the series of 1-phenyl-3/4-(4-trifluorometyl) phenoxy-cycloalkyl)ureas (4-CF3-ΦcAlkΦUs) and 1-phenyl-3-(5-(4-(trifluoromethyl) phenoxy)pyrimidin-2-yl)ureas (4-CF3-ΦOPyΦUs) described herein are shown in Tables 1-2.
(In general: In a reporter assay the amount or activity of a reporter protein is the signal.)

Data set [2] deals with human melanoma CRL-2813 cells. In words: sulforhodamine B (SRB) cell proliferation assay. The settings on record: 5 days, read-out: IC50 (concentration that inhibits growth of human melanoma CRL-2813 cells by 50%). The data set is classed as cell-based. Here is the method:
Cells were seeded in 96-well plates and maintained for 5 days in the presence of 0.5 μM to 20 μM of individual compound, and cell proliferation was measured by the sulforhodamine B (SRB) assay according to previous reports (see e.g., Palakurthi et al, Cancer Res. 60 (2000) 2919-2925): briefly, at the end of a 5-day treatment, cells were fixed in 10% cold trichloroacetic acid. Cell number was estimated by measuring the remaining bound dye of sulforhodamine B after washing. The percentage of growth was calculated by using the equation: 100×[(T-T0)/(C-T0)], where T and C represent the absorbance in treated and control cultures at Day 5, and T0 at time zero, respectively. If T was less than T0, cell death had occurred and was calculated from 100×[(T-T0)/T0].
All 4-CF3-ΦOcAlkΦUs were tested in the sulforhodamine B (SRB) cell proliferation assay to establish the concentrations that inhibit human melanoma CRL-2813 cells growth by 50% (IC50) (see Table 1). This activity reflects a combined effect of membrane permeability and overall anti-proliferative effects that include on target and off-target effects.

`Cc1ccc(F)cc1NC(=O)N[C@H]1CC[C@H](Oc2ccc(C(F)(F)F)cc2)C1` [Compound 7-V, 1-(5-Fluoro-2-methylphenyl)-3-((1S,3S)-3-(4-(trifluoromethyl)phenoxy)cyclopentyl)urea] registered a melting point of 209.8 to 211.4 °C. Moreover, in data set [1] (1.25 μM), the fold induction at 1.25 µM turned out to be 1.4 ± 0.1. Moreover, in data set [1] (5 μM), the fold induction at 5 µM came to 1.3 ± 0.4. In data set [2] (Homo sapiens, CRL2813, 120 h), the IC50 stood at 8000 ± 2500 nM.
Compound `N#Cc1ccc(NC(=O)N[C@H]2CC[C@H](Oc3ccc(C(F)(F)F)cc3)CC2)c(F)c1` [Compound 8-VI, 1-(4-Cyano-2-fluorophenyl)-3-(trans-4-(4-(trifluoromethyl)phenoxy)cyclohexyl)urea] returned a melting point of 221.6 to 223.6 °C. In addition, the fold induction at 1.25 µM in data set [1] (1.25 μM) came to 2.4 ± 0.4. For the same compound, in data set [1] (5 μM), the fold induction at 5 µM was determined as 6.2 ± 1.3. Moreover, the IC50 in data set [2] (Homo sapiens, CRL2813, 120 h) was determined as 1400 ± 300 nM.
For `N#Cc1cc(F)cc(NC(=O)N[C@H]2CC[C@H](Oc3ccc(C(F)(F)F)cc3)CC2)c1` [Compound 9-VI, 1-(3-Cyano-5-fluorophenyl)-3-(trans-4-(4-(trifluoromethyl)phenoxy)cyclohexyl)urea], the melting point is 219.8 to 222 °C. Further, in data set [1] (1.25 μM), the “Fold stimulation of ATF-4 Surrogate eIF2α @ 1.25 μM” value was determined as 3.7 ± 0.8 fold. Further, the “Fold stimulation of ATF-4 Surrogate eIF2α @ 5 μM” value in data set [1] (5 μM) is given as 6.1 ± 1.1 fold. Besides, the IC50 in data set [2] is 1400 ± 300 nM.
For `O=C(Nc1ccc(F)c(F)c1)N[C@H]1C[C@H](Oc2ccc(C(F)(F)F)cc2)C1` [Compound 10-IV, 1-(3,4-difluorophenyl)-3-(trans-3-(4-(trifluoromethyl)phenoxy)cyclobutyl)urea], the melting point is 179.9 to 182 °C. In addition, in data set [1] (1.25 μM), the fold induction at 1.25 µM was determined as 2.2 ± 0.5. Also, in data set [1] (5 μM), the fold induction at 5 µM came out at 4.5 ± 0.4. For the same compound, the IC50 in data set [2] (Homo sapiens, CRL2813, 120 h) amounted to 5500 ± 700 nM.
For `O=C(Nc1ccc(F)c(F)c1)N[C@H]1CC[C@H](Oc2ccc(C(F)(F)F)cc2)C1` [Compound 10-V, 1-(3,4-Difluorophenyl)-3-((1S,3S)-3-(4-(trifluoromethyl)phenoxy)cyclopentyl)urea], in that order: 175.4 to 177.5 °C, 0.9 ± 0.2, 3.5 ± 0.7 and 5200 ± 1500 nM.
Compound `O=C(Nc1ccc(F)c(F)c1)N[C@H]1CC[C@H](Oc2ccc(C(F)(F)F)cc2)CC1` [Compound 10-VI, 1-(3,4-Difluorophenyl)-3-(trans-4-(4-(trifluoromethyl)phenoxy)cyclohexyl)urea] came in with a melting point of 228.2 to 229.8 °C. The fold induction at 1.25 µM in data set [1] (1.25 μM) is 2.9 ± 0.7. Besides, in data set [1] (5 μM), the fold induction at 5 µM was found to be 5.6 ± 1.2. In addition, the IC50 in data set [2] (Homo sapiens, CRL2813, 120 h) amounted to 1300 ± 300 nM.
`O=C(Nc1cccc(F)c1F)N[C@H]1C[C@H](Oc2ccc(C(F)(F)F)cc2)C1` [Compound 11-IV, 1-(2,3-Difluorophenyl)-3-(trans-3-(4-(trifluoromethyl)phenoxy)cyclobutyl)urea] came in with a melting point of 205.9 to 208 °C. The fold induction at 1.25 µM in data set [1] (1.25 μM) worked out at 0.8 ± 0.1. The fold induction at 5 µM in data set [1] (5 μM) was determined as 6.2 ± 2.7. In data set [2] (Homo sapiens, CRL2813, 120 h), the IC50 turned out to be 2300 ± 900 nM.

Broadly, the melting point is the temperature of the solid-liquid transition.
